Earlier results, collected in publication PMC4130638, “Structure of a Stapled Peptide Antagonist Bound to Nutlin-Resistant Mdm2” (PLoS ONE, 2014).
Entries after “also recorded” stand apart in the source; their conditions may differ.

Assays:
[1] = tested on: Mdm2 M62A (N-terminal domain); details: M62A mutation in N-terminal domain of Mdm2
[2] = tested on: Mdm2 Q24R (N-terminal domain); details: Q24R mutation in N-terminal domain of Mdm2

Nutlin-3a
binding affinity for Mdm2 M62A [1]: precludes binding of Nutlin, but not p53; also recorded: selectively reducing affinity for Nutlin but not p53; also recorded: significantly impairing binding
binding affinity for Mdm2 Q24R [2]: selectively reducing affinity for Nutlin but not p53
